Measurements from US10787436B2, “Inhibitors of cyclin-dependent kinase 7 (CDK7)” (Dana-Farber Cancer Institute, Inc., priority 2012, dated 2020).

Tests used:
CDK1/cyclin B = CDK1/cyclin B (Homo sapiens (Human), UniProt P06493); assay: Life Technologies Z'-Lyte kinase assay, CDK1; format: biochemical; settings: read-out: Calculated IC50, CDK1/cyclin B
CDK5/p25 = CDK5/p25 (Homo sapiens (Human), UniProt Q00535); assay: Life Technologies Z'-Lyte kinase assay, CDK5/p25; format: biochemical; settings: read-out: Calculated IC50, CDK5/p25
Chain of CDK5/p25 (Q00535 whole entry): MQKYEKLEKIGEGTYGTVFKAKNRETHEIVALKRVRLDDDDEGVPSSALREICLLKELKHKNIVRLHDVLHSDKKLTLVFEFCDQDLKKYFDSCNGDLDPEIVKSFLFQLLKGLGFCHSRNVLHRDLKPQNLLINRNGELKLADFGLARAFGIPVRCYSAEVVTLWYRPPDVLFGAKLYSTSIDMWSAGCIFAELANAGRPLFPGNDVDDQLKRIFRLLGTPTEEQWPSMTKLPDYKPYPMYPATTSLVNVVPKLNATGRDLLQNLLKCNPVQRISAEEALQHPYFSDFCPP
Chain of CDK5/p25 (Q15078 99-307 partner): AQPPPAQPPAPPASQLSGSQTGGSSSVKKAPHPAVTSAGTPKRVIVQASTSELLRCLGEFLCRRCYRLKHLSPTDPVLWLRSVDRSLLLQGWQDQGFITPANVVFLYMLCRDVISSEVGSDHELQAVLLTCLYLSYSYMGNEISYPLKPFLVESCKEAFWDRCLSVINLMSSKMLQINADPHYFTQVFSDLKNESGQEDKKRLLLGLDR

JNK2 (MAPK9) = JNK2 (MAPK9) (Homo sapiens (Human), UniProt P45984); assay: Life Technologies Z'-Lyte kinase assay, JNK2; format: biochemical
Chain of JNK2 (MAPK9) (P45984 whole entry): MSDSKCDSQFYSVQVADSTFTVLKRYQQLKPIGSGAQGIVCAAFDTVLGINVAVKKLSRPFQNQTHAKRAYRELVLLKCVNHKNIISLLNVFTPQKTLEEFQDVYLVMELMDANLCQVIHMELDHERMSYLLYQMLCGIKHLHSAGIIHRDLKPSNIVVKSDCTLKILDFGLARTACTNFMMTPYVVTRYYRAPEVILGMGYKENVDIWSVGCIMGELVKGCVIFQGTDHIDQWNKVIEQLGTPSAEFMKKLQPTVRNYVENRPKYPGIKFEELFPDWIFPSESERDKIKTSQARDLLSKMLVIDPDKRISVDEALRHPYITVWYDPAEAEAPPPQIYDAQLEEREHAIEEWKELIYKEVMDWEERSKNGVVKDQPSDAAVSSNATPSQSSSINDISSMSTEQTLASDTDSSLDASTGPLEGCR

HL60 = assay: Proliferation assay, CellTiter-Glo, 72 hour; format: cell-based; settings: blood cancer cell line, read-out: Inhibition of proliferation, HL60
THP-1 = assay: Proliferation assay, CellTiter-Glo, 72 hour; format: cell-based; settings: blood cancer cell line, read-out: Inhibition of proliferation, THP-1
MCF7 = assay: Proliferation assay, CellTiter-Glo, 72 hour; format: cell-based; settings: breast cancer cell line, read-out: Inhibition of proliferation, MCF7
MCF10A = assay: Proliferation assay, CellTiter-Glo, 72 hour; format: cell-based; settings: non-tumorigenic breast epithelial cell line, read-out: Inhibition of proliferation, MCF10A
A673 = assay: Proliferation assay, CellTiter-Glo, 72 hour; format: cell-based; settings: Ewing's sarcoma cell line, read-out: Inhibition of proliferation, A673
Hs863T = assay: Proliferation assay, CellTiter-Glo, 72 hour; format: cell-based; settings: Ewing's sarcoma cell line, read-out: Inhibition of proliferation, Hs863T
SK-ES = assay: Proliferation assay, CellTiter-Glo, 72 hour; format: cell-based; settings: Ewing's sarcoma cell line, read-out: Inhibition of proliferation, SK-ES
[1] = test system: retinal pigment epithelial (RPE1) cells; assay: Anti-proliferative assay, cell titer glo, 72 hours; format: cell-based, human
Description: At indicated time points, cellular lysates were harvested at the indicated times points and immunoblotted for the indicated proteins. […] Anti-proliferative effects were determined using cell titer glo analysis. […] Anti-proliferative effects were determined using alamarBlue® analysis. […] Anti-proliferative effects were determined using cell titer glo analysis. […] Dose: i.v. 1 mg/kg and p.o. 10 mg/kg.
Proliferation assays were conducted over a 48-72 hour time period (as noted). […] Cancer cell line profiling was performed over a 72 time period using Alamar Blue reagent.
CDK7 inhibitors display strong antiproflierative effects in leukemia and lymphoma cancer cells. However, a better definition of the breadth of their therapeutic potential in other cell types has not been reported. […] The rationale for examining such a large panel of human cancer cell lines is based on the fact that there is substantial genetic heterogeneity among human tumor cells, even with the same histological origins. In general, the data reveal a bimodal distribution with cell lines displaying exquisite sensitivity or apparent complete insensitivity to the compound.

CDK7 occupancy = assay: CDK7 ChIP-seq in Jurkat cells; format: cell-based, human
Description: After the indicated treatment time, cells were crosslinked for 10 minutes at room temperature by the addition of one-tenth of the volume of 11% formaldehyde solution (11% formaldehyde, 50 mM Hepes (pH 7.3), 100 mM NaCl, 1 mM EDTA (pH 8.0), 0.5 mM EGTA (pH 8.0)) to the growth media followed by two washes with PBS. Following the final PBS wash, supernatant was aspirated, and the cell pellet was flash frozen in liquid nitrogen. Frozen crosslinked cells were stored at −80° C.
50 μl of Dynal magnetic beads (Sigma) were blocked with 0.5% BSA (w/v) in PBS. Magnetic beads were bound with 5 μg of the indicated antibody. Antibodies used are as follows: Total RNAP II (Rpb1 N-terminus): Santa Cruz sc-899; CDK7: Bethyl A300-405A. Crosslinked cells were lysed with lysis buffer 1 (50 mM Hepes (pH 7.3), 140 mM NaCl, 1 mM EDTA, 10% glycerol, 0.5% NP-40, and 0.25% Triton X-100) and washed with lysis buffer 2 (10 mM Tris-HCl (pH 8.0), 200 mM NaCl, 1 mM EDTA (pH 8.0) and 0.5 mM EGTA (pH 8.0)). […]
Illumina sequencing libraries were generated, and data were processed according to Lin et al., Cell (2012) 151:56-67. […] These criteria preserved only reads that mapped uniquely to the genome with 1 or fewer mismatches. […]

Chain of CDK1/cyclin B (P06493 whole entry): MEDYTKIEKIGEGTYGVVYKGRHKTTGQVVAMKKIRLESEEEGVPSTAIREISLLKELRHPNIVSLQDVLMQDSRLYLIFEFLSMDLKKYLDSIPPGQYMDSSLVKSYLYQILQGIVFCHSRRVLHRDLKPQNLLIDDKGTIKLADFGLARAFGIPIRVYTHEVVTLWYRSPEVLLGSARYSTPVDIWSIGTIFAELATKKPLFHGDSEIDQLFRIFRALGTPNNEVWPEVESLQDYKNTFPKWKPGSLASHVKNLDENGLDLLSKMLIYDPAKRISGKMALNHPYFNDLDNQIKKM
Chain of CDK1/cyclin B (P14635 whole entry partner): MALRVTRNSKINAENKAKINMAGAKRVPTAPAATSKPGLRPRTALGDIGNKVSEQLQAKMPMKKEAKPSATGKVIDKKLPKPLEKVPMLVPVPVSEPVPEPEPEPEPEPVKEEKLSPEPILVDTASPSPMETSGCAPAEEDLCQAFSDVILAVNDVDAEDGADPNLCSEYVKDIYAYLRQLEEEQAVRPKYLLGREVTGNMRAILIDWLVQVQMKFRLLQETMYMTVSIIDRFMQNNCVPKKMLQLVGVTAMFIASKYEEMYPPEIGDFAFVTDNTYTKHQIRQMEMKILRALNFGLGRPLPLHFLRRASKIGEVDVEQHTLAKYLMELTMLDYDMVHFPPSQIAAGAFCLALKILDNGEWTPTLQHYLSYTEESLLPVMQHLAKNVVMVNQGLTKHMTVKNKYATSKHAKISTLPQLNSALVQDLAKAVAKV

- IC50 (CDK1/cyclin B): 100 to 1000 nM
- IC50 (CDK5/p25): 100 to 1000 nM
- IC50 (JNK2 (MAPK9); read-out: Calculated IC50, JNK2 (MAPK9)): 100 to 1000 nM
- Percent inhibition, JNK2 ^b (JNK2 (MAPK9); superscript b (footnote not given; tested at 100 nM and 1 μM)): C (less than 50% inhibition)
- IC50 (HL60): < 500 nM
- IC50 (THP-1): < 500 nM
- IC50 (MCF7): < 500 nM
- IC50 (SK-ES): < 500 nM
SMILES: CN(C)C/C=C/C(=O)Nc1ccc(C(=O)Nc2cccc(Nc3ncc(Cl)c(-c4c[nH]c5ccccc45)n3)c2)cc1 [Formula I-23]
- IC50 (MCF10A): < 500 nM
- IC50 (A673): < 500 nM
- IC50 (Hs863T): 500 to 5000 nM
- Sensitivity of untransformed RPE1 cells [1]: largely resistant
- CDK7 occupancy (association with chromatin) (CDK7 occupancy): did not disrupt CDK7 occupancy
